# Experimental data: US8957108B2, “Use of 5,6-dimethylxanthenone-4-acetic acid as an antiviral agent” (University of Maryland, Baltimore, priority 2006, dated 2015)
# Legend:
# [1] = test system: vesicular stomatitis virus (VSV); assay type: cell-based, strain Indiana; conditions: RAW 264.7 macrophages pretreated 6 h with 100 μg/ml; highest exposure MOI=10.0
# [2] = IFN-β-deficient cells, DMXAA 3 h vs unstimulated wild-type cells
compound,measurement,setting,value
"Cc1ccc2c(=O)c3cccc(CC(=O)O)c3oc2c1C [DMXAA, 5,6-dimethylxanthenone-4-acetic acid]",VSV infection and CPE,[1],completely prevents VSV infection and CPE
same,CYP1A2 Fold Change: IFNβ−/−,IFN-β−/− macrophages,3.9 fold
same,CYP1B1 Fold Change: IFNβ−/−,IFN-β−/− macrophages,5.9 fold
same,2310043N10RIK Fold Change: IFNβ−/−,IFN-β−/− macrophages; [2],2.2 fold
same,5830484A20RIK Fold Change: IFNβ−/−,IFN-β−/− macrophages; [2],4.0 fold
same,ABCB1 Fold Change: IFNβ−/−,IFN-β−/− macrophages; [2],7.1 fold
same,ABL1 Fold Change: IFNβ−/−,IFN-β−/− macrophages; [2],1.5 fold
same,ABLIM1 Fold Change: IFNβ−/−,IFN-β−/− macrophages; [2],1.4 fold
same,ACVR1B Fold Change: IFNβ−/−,IFN-β−/− macrophages; [2],2.3 fold
same,ADRB2 Fold Change: IFNβ−/−,IFN-β−/− macrophages; [2],1.7 fold
same,AFTIPHILIN Fold Change: IFNβ−/−,IFN-β−/− macrophages; [2],1.2 fold
same,AKAP12 Fold Change: IFNβ−/−,IFN-β−/− macrophages; [2],1.5 fold
same,AMPD3 Fold Change: IFNβ−/−,IFN-β−/− macrophages; [2],2.7 fold
same,AP2A2 Fold Change: IFNβ−/−,IFN-β−/− macrophages; [2],8.8 fold
same,APBB1IP Fold Change: IFNβ−/−,IFN-β−/− macrophages; [2],1.8 fold
same,APOBEC3F Fold Change: IFNβ−/−,IFN-β−/− macrophages; [2],1.4 fold
same,ARHGEF3 Fold Change: IFNβ−/−,IFN-β−/− macrophages; [2],2.1 fold
same,ARID3A Fold Change: IFNβ−/−,IFN-β−/− macrophages; [2],2.5 fold
same,ARL4C Fold Change: IFNβ−/−,IFN-β−/− macrophages; [2],5.5 fold
same,ASF1A Fold Change: IFNβ−/−,IFN-β−/− macrophages; [2],2.1 fold
same,ATRX Fold Change: IFNβ−/−,IFN-β−/− macrophages; [2],2.6 fold
same,B3GAT3 Fold Change: IFNβ−/−,IFN-β−/− macrophages; [2],1.6 fold
same,BACE1 Fold Change: IFNβ−/−,IFN-β−/− macrophages; [2],3.7 fold
same,BAMBI Fold Change: IFNβ−/−,IFN-β−/− macrophages; [2],1.5 fold
same,BCL2 Fold Change: IFNβ−/−,IFN-β−/− macrophages; [2],1.4 fold
same,BCL2L1 Fold Change: IFNβ−/−,IFN-β−/− macrophages; [2],2.3 fold
same,BHLHB2 Fold Change: IFNβ−/−,IFN-β−/− macrophages; [2],1.3 fold
same,BID Fold Change: IFNβ−/−,IFN-β−/− macrophages; [2],2.9 fold
same,C8ORF4 Fold Change: IFNβ−/−,IFN-β−/− macrophages; [2],4.1 fold
same,C9ORF26 Fold Change: IFNβ−/−,IFN-β−/− macrophages; [2],4.4 fold
same,CCL2 Fold Change: IFNβ−/−,IFN-β−/− macrophages; [2],5.8 fold
same,CCL3 Fold Change: IFNβ−/−,IFN-β−/− macrophages; [2],1.4 fold
same,CCL4 Fold Change: IFNβ−/−,IFN-β−/− macrophages; [2],8.1 fold
same,CCL5 Fold Change: IFNβ−/−,IFN-β−/− macrophages; [2],3.7 fold
same,CCL7 Fold Change: IFNβ−/−,IFN-β−/− macrophages; [2],2.9 fold
same,CCL13 Fold Change: IFNβ−/−,IFN-β−/− macrophages; [2],5.8 fold
same,CCND2 Fold Change: IFNβ−/−,IFN-β−/− macrophages; [2],2.0 fold
same,CCNE1 Fold Change: IFNβ−/−,IFN-β−/− macrophages; [2],2.9 fold
same,CCNF Fold Change: IFNβ−/−,IFN-β−/− macrophages; [2],2.4 fold
same,CCRN4L Fold Change: IFNβ−/−,IFN-β−/− macrophages; [2],1.6 fold
same,CD37 Fold Change: IFNβ−/−,IFN-β−/− macrophages; [2],1.1 fold
same,CD40 Fold Change: IFNβ−/−,IFN-β−/− macrophages; [2],1.3 fold
same,CD86 Fold Change: IFNβ−/−,IFN-β−/− macrophages; [2],6.0 fold
same,CD274 Fold Change: IFNβ−/−,IFN-β−/− macrophages; [2],1.0 fold
same,CDC6 Fold Change: IFNβ−/−,IFN-β−/− macrophages; [2],3.2 fold
same,CDC7 Fold Change: IFNβ−/−,IFN-β−/− macrophages; [2],1.6 fold
same,CDC37L1 Fold Change: IFNβ−/−,IFN-β−/− macrophages; [2],2.2 fold
same,CDKN1A Fold Change: IFNβ−/−,IFN-β−/− macrophages; [2],1.1 fold
same,CEBPB Fold Change: IFNβ−/−,IFN-β−/− macrophages; [2],1.9 fold
same,CITED2 Fold Change: IFNβ−/−,IFN-β−/− macrophages; [2],1.5 fold
same,CLCA1 Fold Change: IFNβ−/−,IFN-β−/− macrophages; [2],1.9 fold
same,CNR2 Fold Change: IFNβ−/−,IFN-β−/− macrophages; [2],2.3 fold
same,CREBBP Fold Change: IFNβ−/−,IFN-β−/− macrophages; [2],6.3 fold
same,CXCL10 Fold Change: IFNβ−/−,IFN-β−/− macrophages; [2],21.2 fold
same,DAXX Fold Change: IFNβ−/−,IFN-β−/− macrophages; [2],1.6 fold
same,DSCR1 Fold Change: IFNβ−/−,IFN-β−/− macrophages; [2],2.7 fold
same,FGD6 Fold Change: IFNβ−/−,IFN-β−/− macrophages; [2],2.0 fold
same,FGL2 Fold Change: IFNβ−/−,IFN-β−/− macrophages; [2],3.6 fold
same,GBP2 Fold Change: IFNβ−/−,IFN-β−/− macrophages; [2],1.6 fold
same,GBP4 Fold Change: IFNβ−/−,IFN-β−/− macrophages; [2],4.6 fold
same,GBP6 Fold Change: IFNβ−/−,IFN-β−/− macrophages; [2],6.8 fold
same,GYPC Fold Change: IFNβ−/−,IFN-β−/− macrophages; [2],4.4 fold
same,IFI16 Fold Change: IFNβ−/−,IFN-β−/− macrophages; [2],2.7 fold
same,IFI35 Fold Change: IFNβ−/−,IFN-β−/− macrophages; [2],1.1 fold
same,IFI203 Fold Change: IFNβ−/−,IFN-β−/− macrophages; [2],3.4 fold
same,IFI205 Fold Change: IFNβ−/−,IFN-β−/− macrophages; [2],1.8 fold
same,IFIH1 Fold Change: IFNβ−/−,IFN-β−/− macrophages; [2],7.0 fold
same,IFIT1 Fold Change: IFNβ−/−,IFN-β−/− macrophages; [2],22.2 fold
same,IFIT2 Fold Change: IFNβ−/−,IFN-β−/− macrophages; [2],14.3 fold
same,IFIT3 Fold Change: IFNβ−/−,IFN-β−/− macrophages; [2],10.5 fold
same,IFNA5 Fold Change: IFNβ−/−,IFN-β−/− macrophages; [2],2.5 fold
